In the assay the test system is SOCS3 associated with the insulin receptor (SOCS3/IRβ). As to the kind of experiment: Ex vivo Western blotting of SOCS3 to IR beta chain ratio in hippocampal formation. The class given is cell-based, human. Particulars: MCI cases. The source says:
The data shown are ratios of SOCS3 to IR beta chain (IRβ) in ex vivo Western blotting tests on the hippocampal formation of age- and sex-matched normal (N), non-amnestic mild cognitive impairment (naMCI), amnestic mild cognitive impairment (aMCI), and AD dementia (ADd) cases (n=10 in each group). The basal SOCS3/IRβ levels were highly elevated in naMCI, aMCI, and ADd cases compared to the normal cases. […] Asterisks indicate statistical significance levels for differences within diagnostic groups (*=p<0.05 and *** p=<0.0001).
A general note: Immunoblotting shows a protein as a band on a membrane.

As to D-Ala^2 GIP, the “basal SOCS3/IRβ ratio” value is reported as “highly effective in reducing this ratio”.

Values taken from patent publication US20170112897A1, “METHODS FOR TREATING BRAIN INSULIN RESISTANCE” (priority 2015, published 2017).
